According to patent publication US11052157B2 (priority 2014, dated 2021):
Where a name gives a salt, the structure may show the parent alone. One block for each molecule: values may come before it.

Columns and labels:
[1] = test system: intact, bacterially derived minicells; experiment: Flow cytometry of dye-packaged minicells (FL1 channel); parameters: species or system Salmonella enterica serovar Typhimurium; settings: BacLight Green 200 nM, 30 minutes, room temperature
Description: (§1) Minicells packaged with BacLight™ Green were analyzed by flow cytometry (Beckman Coulter FC500). Empty minicells and BacLight™ Green-packaged minicells were labeled with an anti-LPS alexa fluor 647 (AF647) antibody. Firstly, the minicells were analyzed using the FL4 channel to detect anti-LPS AF647-stained minicells. The minicell population was visualized in a dot plot using FL4 fluorescence versus forward scatter, and the population was gated to select anti-LPS AF647 stained minicells only, disregarding any debris.
The gated population was analyzed on the FL1 channel, to detect BacLight™ Green fluorescence.
as §1, with “loaded” for “packaged”, “SYTO 9®” for “BacLight™ Green”, “SYTO® 9-stained” for “BacLight™ Green-packaged”, “plot,” for “plot”, “AF647-stained” for “AF647 stained”, “debris. The gated population then was analyzed on the FL1 channel, to detect SYTO 9 fluorescence.” for “debris.”

[2] = cited from earlier work
[3] = Fluorescence readings of doxorubicin loading solutions with folic acid (plate reader); type: physicochemical; settings: for % Fluorescence Em λ590 nm / % Fluorescence Em λ620 nm: excitation 485 nm
Description: The solutions were incubated at room temperature overnight and then were filtered through a 0.1 μm filter, to sterilize the solutions and to remove any particulates.
On the following day the fluorescence of an aliquot of each solution was measured with a fluorescence plate reader (excitation wavelength: 485 nm, emission wavelengths: 590 nm and 620 nm). Concomitantly, minicells were washed with PBS buffer and then were loaded with one or another of each of the Dox+FA solutions, previously prepared at a density of 2.5×10^10 minicells/ml, in a volume between about 1 ml to 2 mls. Samples (500 μl) were taken from each of the treatment groups at the time points of 30 minutes, 1 hour, 2 hours, 4 hours, 6 hours, and overnight.

[4] = test system: MDA-MB-468 human breast cancer cells; experiment: Incubation of non-targeted doxorubicin-loaded minicells (small-scale protocol) with cancer cells, confocal microscopy; type: cell-based; settings: 1×10^8 non-targeted doxorubicin-loaded minicells (small-scale protocol), 10^4 cells per well; within two days
Description: Upon overnight incubation with the drug (about 1 ml/mg) at 37° C. with rotation, the loaded minicells were subjected five times to a washing step that entailed centrifugation (13,200 rpm, 10 minutes) and resuspension of the resultant pellet in 1 ml BSG buffer (pH 7.4).
The washed, doxorubicin-loaded minicells (1×10^8) then were incubated with estrogen receptor-negative MDA-MB-468 human breast cancer cells (10^4 cells per well) in Gibco RPMI-1640 tissue culture medium (in 0.5 ml per well) supplemented with 10% Fetal Bovine Serum, 2 mM L-glutamine, and 100 U/ml of both penicillin G and streptomycin.
The cells were monitored subsequently every 24 hours via confocal microscopy.

Molecule: CN1C(=CC=Cc2n(Cc3ccc(CCl)cc3)c3cc(Cl)c(Cl)cc3[n+]2Cc2ccc(CCl)cc2)Oc2ccccc21.[Cl-] [BacLight™ Green]
minicells that are fluorescent [1]: greater than 95%

Molecule: O=C1c2c(O)ccc(O)c2C(=O)c2c(NCCNCCO)ccc(NCCNCCO)c21 [MTX, mitoxantrone dihydrochloride]
solubility in water [2]: 5000 to 7500 µg/mL

% Fluorescence Em λ590 nm ([3]; 0 μg/ml FA, Dox 100 pg/ml in PBS): 100%
% Fluorescence Em λ620 nm ([3]; 0 μg/ml FA): 100%
% Fluorescence Em λ590 nm ([3]; 50 μg/ml FA): 93%
% Fluorescence Em λ620 nm ([3]; 50 μg/ml FA): 94%
doxorubicin emission fluorescence lost ([3]; 50 μg/ml folic acid): 6-7%
% Fluorescence Em λ590 nm ([3]; 400 μg/ml FA): 61%
% Fluorescence Em λ620 nm ([3]; 400 μg/ml FA): 59%
doxorubicin fluorescence emission signal lost ([3]; 400 μg/ml of folic acid): ~40%
Molecule: doxorubicin
doxorubicin entry into cancer cells (confocal microscopy) [4]: red fluorescence in their nuclei
